# In patent US10975056B2 (GlaxoSmithKline Intellectual Property Development Limited, priority 2016, dated 2021):
# “And” between values parts separate entries of the source, which are not always exact repeats. Equal entries are not always repeated. Structures can show the parent of a compound that is named as a salt. Where two headings read alike, the source gives them in different places.
# How the values were obtained:
# [1] = target: DNMT1 (Homo sapiens, UniProt P26358); assay: DNMT1 biochemical activity, breaklight assay and/or SPA assay
# [2] = tested on: erythroid progenitor cells (EPCs); assay: Fetal hemoglobin (HbF) ELISA in day 7 erythroid progenitor cells; format: cell-based, human; conditions: Homo sapiens, Erythroid progenitor cell, HbF ELISA, day 7 EPCs, 5 days; read-out: EPC ELISA (pEC50 category) (converted);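 further: for fetal hemoglobin induction normalized to vehicle-treated cells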
# Summary of the method: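 Day 7 EPCs from human bone marrow CD34+ cells were plated at 1,000 cells/well in media with 3 U/mL rhEPO. They were exposed to a 22-point dilution ([…]) for 5 days at 37 °C. Lysate HbF was measured by sandwich ELISA (OD450) and normalized to DMSO control wells.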
# [3] = binned activity in either the breaklight or the SPA assay, read-out: DNMT1 BioChemical (pIC50 category) (converted)
# [4] = binned activity in either the breaklight or the SPA assay
# DNMT1, sequence (P26358 whole entry, looked up): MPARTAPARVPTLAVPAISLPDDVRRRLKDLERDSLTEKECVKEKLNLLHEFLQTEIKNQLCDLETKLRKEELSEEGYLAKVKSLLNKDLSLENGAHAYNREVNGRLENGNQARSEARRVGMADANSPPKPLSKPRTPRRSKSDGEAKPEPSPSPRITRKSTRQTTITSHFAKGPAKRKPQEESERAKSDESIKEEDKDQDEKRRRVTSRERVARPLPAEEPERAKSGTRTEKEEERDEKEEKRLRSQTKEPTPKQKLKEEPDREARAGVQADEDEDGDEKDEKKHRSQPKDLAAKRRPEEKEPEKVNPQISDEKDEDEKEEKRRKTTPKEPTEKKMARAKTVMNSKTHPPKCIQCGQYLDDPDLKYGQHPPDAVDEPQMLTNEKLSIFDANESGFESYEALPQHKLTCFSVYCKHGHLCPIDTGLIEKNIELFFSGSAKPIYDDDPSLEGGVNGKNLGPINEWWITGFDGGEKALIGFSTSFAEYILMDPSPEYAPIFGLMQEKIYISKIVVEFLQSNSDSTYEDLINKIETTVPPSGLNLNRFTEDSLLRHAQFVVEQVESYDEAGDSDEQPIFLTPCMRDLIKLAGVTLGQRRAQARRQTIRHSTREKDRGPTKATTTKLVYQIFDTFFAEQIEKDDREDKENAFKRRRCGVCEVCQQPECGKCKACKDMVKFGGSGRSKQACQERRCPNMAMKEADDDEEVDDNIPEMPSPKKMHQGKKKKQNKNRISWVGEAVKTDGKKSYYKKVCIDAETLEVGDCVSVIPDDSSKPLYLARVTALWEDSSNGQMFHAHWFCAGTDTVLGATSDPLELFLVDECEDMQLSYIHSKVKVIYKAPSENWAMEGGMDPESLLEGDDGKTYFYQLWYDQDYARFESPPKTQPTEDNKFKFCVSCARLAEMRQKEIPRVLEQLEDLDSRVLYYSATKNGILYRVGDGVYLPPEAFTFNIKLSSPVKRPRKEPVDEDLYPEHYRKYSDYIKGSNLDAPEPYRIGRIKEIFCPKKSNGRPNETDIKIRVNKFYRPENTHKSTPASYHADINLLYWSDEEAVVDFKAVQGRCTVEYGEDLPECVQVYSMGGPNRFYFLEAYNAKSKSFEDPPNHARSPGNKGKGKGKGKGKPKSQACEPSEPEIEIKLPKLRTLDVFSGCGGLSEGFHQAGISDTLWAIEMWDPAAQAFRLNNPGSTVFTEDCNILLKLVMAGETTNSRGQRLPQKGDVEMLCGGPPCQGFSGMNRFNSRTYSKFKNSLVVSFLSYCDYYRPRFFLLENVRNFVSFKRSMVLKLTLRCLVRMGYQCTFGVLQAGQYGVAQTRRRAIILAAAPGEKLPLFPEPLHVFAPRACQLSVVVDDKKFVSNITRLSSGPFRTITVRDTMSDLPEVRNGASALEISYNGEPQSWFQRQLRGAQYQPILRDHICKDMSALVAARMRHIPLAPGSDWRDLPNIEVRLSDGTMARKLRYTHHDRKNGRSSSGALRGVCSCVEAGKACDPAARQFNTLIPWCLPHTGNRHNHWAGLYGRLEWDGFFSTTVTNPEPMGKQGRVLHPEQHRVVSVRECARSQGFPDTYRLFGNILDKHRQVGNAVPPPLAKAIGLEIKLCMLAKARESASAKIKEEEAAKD
SMILES,"IC50 [1, 3]",EC50 [2],"DNMT1 BioChemical (pIC50 category) [1, 4]",other results
"CCc1c(C#N)c(SC(C(N)=O)c2ccccc2)nc(N2CCC(C#N)CC2)c1C#N (centres unmarked) [Example 319, 2-((3,5-Dicyano-6-(4-cyanopiperidin-1-yl)-4-ethylpyridin-2-yl)thio)-2-phenylacetamide]",1000 to 31600 nM,316 to 1000 nM,–,–
"CCc1c(C#N)c(S[C@H](C(N)=O)c2ccccc2)nc(N2CC[C@H](O)C2)c1C#N [Example 320, (S)-2-((3,5-Dicyano-4-ethyl-6-((S)-3-hydroxypyrrolidin-1-yl)pyridin-2-yl)thio)-2-phenylacetamide]",1000 to 31600 nM,316 to 1000 nM,–,–
"CC1(N)CCN(c2nc(SC(C(N)=O)c3ccccc3)c(C#N)c(C3CC3)c2C#N)CC1 (centres unmarked) [Example 321, 2-((6-(4-Amino-4-methylpiperidin-1-yl)-3,5-dicyano-4-cyclopropvlpyridin-2-yl)thio)-2-phenylacetamide]",–,< 316 nM,D (Category D: ≥6.5),–
"CCc1c(C#N)c(SC(C(N)=O)c2ccccn2)nc(N2CC[C@H](O)C2)c1C#N (stereo partly drawn) [Example 322, 2-((3,5-Dicyano-4-ethyl-6-((S)-3-hydroxypyrrolidin-1-yl)pyridin-2-yl)thio)-2-(pyridin-2-yl)acetamide]",–,316 to 1000 nM,D (Category D: ≥6.5),–
"CCc1c(Cl)c(SC(C(N)=O)c2ccccc2)nc(N2CCNCC2)c1Cl (centres unmarked) [Example 324, 2-((3,5-Dichloro-4-ethyl-6-(piperazin-1-yl)pyridin-2-yl)thio)-2-phenylacetamide]",–,> 31600 nM,–,"IC50 ([1]; DNMT1 BioChemical (pIC50 category), binned activity in either the breaklight or the SPA assay): 316 to 1000 nM; IC50 ([1]; average pIC50 against DNMT1, breaklight assay and/or SPA assay, repeated experimental runs): 316 to 1000 nM and 631 nM"
"CCc1c(C#N)c(SC(C(N)=O)c2ccccc2)nc(N2CCC(NC(=O)OC(C)(C)C)CC2)c1C#N (centres unmarked) [Example 328, tert-Butyl (1-(6-((2-amino-2-oxo-1-phenylethyl)thio)-3,5-dicyano-4-ethylpyridin-2-yl)piperidin-4-yl)carbamate]",1000 to 31600 nM,316 to 1000 nM,–,–
CCc1c(C#N)c(SCc2ccc(CNC(C)=O)cc2)nc(N2CCNC(=O)C2)c1C#N [Example 329],316 to 1000 nM,1000 to 31600 nM,–,–
"CCc1c(C#N)c(SC(C(N)=O)c2ccccc2)nc(N2CC(CC(N)=O)C2)c1C#N (centres unmarked) [Example 330, 2-((6-(3-(2-Amino-2-oxoethyl)azetidin-1-yl)-3,5-dicyano-4-ethylpyridin-2-yl)thio)-2-phenylacetamide]",–,1000 to 31600 nM,D (Category D: ≥6.5),–
"CCc1c(C#N)c(SCc2ccc(CNC(C)=O)cc2)nc(N2CCC(O)C2)c1C#N (centres unmarked) [Example 331, N-(4-(((3,5-Dicyano-4-ethyl-6-(3-hydroxypyrrolidin-1-yl)pyridin-2-yl)thio)methyl)benzyl)acetamide]",316 to 1000 nM,> 31600 nM,–,–
"CCc1c(C#N)c(SC(CC)c2ccc(CNC(C)=O)cc2)nc(N2CCC(N(C)C)CC2)c1C#N (centres unmarked) [Example 332, N-(4-(1-(3,5-Dicyano-6-(4-(dimethylamino)piperidin-1-yl)-4-ethylpyridin-2-ylthio)propyl)benzyl)acetamide, Trifluoroacetic Acid Salt]",1000 to 31600 nM,316 to 1000 nM,–,–
"CCc1c(C#N)c(SCc2ccc(NS(C)(=O)=O)nc2)nc(N2CCCN(C)CC2)c1C#N [Example 335, N-(5-(((3,5-dicyano-4-ethyl-6-(4-methyl-1,4-diazepan-1-yl)pyridin-2-yl)thio)methyl)pyridin-2-yl)methanesulfonamide]",316 to 1000 nM,> 31600 nM,–,–
"CCc1c(C#N)c(SCc2ccc(CNC(C)=O)cc2)nc(SC(C(N)=O)c2ccccc2)c1C#N (centres unmarked) [Example 336, 2-(6-(4-(Acetamidomethyl)benzylthio)-3,5-dicyano-4-ethylpyridin-2-ylthio)-2-phenylacetamide]",316 to 1000 nM,1000 to 31600 nM,–,–
"CCc1c(C#N)c(SCc2ccc(-c3cccnc3)cc2)nc(N2CCC(N3CCCC3)CC2)c1C#N [Example 337, 4-Ethyl-2-((4-(pyridin-3-yl)benzyl)thio)-6-(4-(pyrrolidin-1-yl)piperidin-1-yl)pyridine-3,5-dicarbonitrile]",316 to 1000 nM,> 31600 nM,–,"IC50 ([1]; breaklight assay and/or SPA assay, repeated experimental runs, read-out: average pIC50 against DNMT1 (converted)): 3160 nM"
"CCc1c(C#N)c(SCc2ccc(-c3ccncc3)cc2)nc(N2CCC(N3CCCC3)CC2)c1C#N [Example 338, 4-Ethyl-2-((4-(pyridin-4-yl)benzyl)thio)-6-(4-(pyrrolidin-1-yl)piperidin-1-yl)pyridine-3,5-dicarbonitrile]",316 to 1000 nM,> 31600 nM,–,–
"CCc1c(C#N)c(SCc2ccc(S(N)(=O)=O)cc2)nc(N2CCC(NC(=O)CN)CC2)c1C#N [Example 339, 2-Amino-N-(1-(3,5-dicyano-4-ethyl-6-((4-sulfamoylbenzyl)thio)pyridin-2-yl)piperidin-4-yl)acetamide hydrochloride]",–,1000 to 31600 nM,D (Category D: ≥6.5),–
"CCc1c(C#N)c(SC(C(N)=O)c2ccccc2)nc(N(C)Cc2n[nH]c(=O)[nH]2)c1C#N (centres unmarked) [Example 340, 2-((3,5-Dicyano-4-ethyl-6-(methyl((5-oxo-4,5-dihydro-1H-1,2,4-triazol-3-yl)methyl)amino)pyridin-2-yl)thio)-2-phenylacetamide]",–,1000 to 31600 nM,D (Category D: ≥6.5),–
"CCc1c(C#N)c(SC(C(N)=O)c2ccccc2)nc(N(C)Cc2nnc[nH]2)c1C#N (centres unmarked) [Example 341, 2-((6-(((4H-1,2,4-Triazol-3-yl)methyl)(methyl)amino)-3,5-dicyano-4-ethylpyridin-2-yl)thio)-2-phenylacetamide]",–,< 316 nM,D (Category D: ≥6.5),–
"CCOc1c(C#N)c(C)nc(SC(C(N)=O)c2ccccc2)c1C#N (centres unmarked) [Example 342, 2-((3,5-Dicyano-4-ethoxy-6-methylpyridin-2-yl)thio)-2-phenylacetamide]",316 to 1000 nM,> 31600 nM,–,–
"CCc1c(C#N)c(SCc2ccc(CC(=O)NCCO)cc2)nc(N2CCCN(C)CC2)c1C#N [Example 343, 2-(4-(((3,5-Dicyano-4-ethyl-6-(4-methyl-1,4-diazepan-1-yl)pyridin-2-yl)thio)methyl)phenyl)-N-(2-hydroxyethyl)acetamide]",–,316 to 1000 nM,D (Category D: ≥6.5),–
"CCc1c(C#N)c(SCc2ccc3[nH]ccc3c2)nc(N2CCC(N3CCCC3)CC2)c1C#N [Example 344, 2-(((1H-Indol-5-yl)methyl)thio)-4-ethyl-6-(4-(pyrrolidin-1-yl)piperidin-1-yl)pyridine-3,5-dicarbonitrile]",316 to 1000 nM,1000 to 31600 nM,–,–
"CCc1c(C#N)c(SCc2ccc(S(N)(=O)=O)cc2)nc(N2CCC(N)CC2)c1C#N [Example 345, 4-(((6-(4-Aminopiperidin-1-yl)-3,5-dicyano-4-ethylpyridin-2-yl)thio)methyl) benzenesulfonamide]",–,1000 to 31600 nM,D (Category D: ≥6.5),–
"CCc1c(C#N)c(SCc2ccc3c(c2)OCO3)nc(N2CCCN(C)CC2)c1C#N [Example 346, 2-((Benzo[1,3]dioxol-5-ylmethyl)thio)-4-ethyl-6-(4-methyl-1,4-diazepan-1-yl)pyridine-3,5-dicarbonitrile]",316 to 1000 nM,> 31600 nM,–,–
"CCc1c(C#N)c(SCc2ccc3c(c2)C(OC)(OC)C(=O)N3)nc(N2CCCN(C)CC2)c1C#N [Example 347, 2-(((3,3-Dimethoxy-2-oxoindolin-5-yl)methyl)thio)-4-ethyl-6-(4-methyl-1,4-diazepan-1-yl)pyridine-3,5-dicarbonitrile]",316 to 1000 nM,1000 to 31600 nM,–,–
"CCc1c(C#N)c(SCc2ccc3c(c2)C(=O)C(=O)N3)nc(N2CCCN(C)CC2)c1C#N [Example 348, 2-(((2,3-Dioxoindolin-5-yl)methyl)thio)-4-ethyl-6-(4-methyl-1,4-diazepan-1-yl)pyridine-3,5-dicarbonitrile]",316 to 1000 nM,> 31600 nM,–,–
"CCc1c(C#N)c(SCc2ccc(CNC(C)=O)cc2)nc(N(C)Cc2nnc[nH]2)c1C#N [Example 349, N-(4-(((6-(((4H-1,2,4-Triazol-3-yl)methyl)(methyl)amino)-3,5-dicyano-4-ethylpyridin-2-yl)thio)methyl)benzyl)acetamide]",316 to 1000 nM,1000 to 31600 nM,–,–
"CCc1c(C#N)c(SCc2ccc(-c3ccccn3)cc2)nc(N2CCC(N3CCCC3)CC2)c1C#N [Example 350, 4-Ethyl-2-((4-(pyridin-2-yl)benzyl)thio)-6-(4-(pyrrolidin-1-yl)piperidin-1-yl)pyridine-3,5-dicarbonitrile]",316 to 1000 nM,> 31600 nM,–,–
CCc1nc(SC(C(N)=O)c2ccccc2)c(C#N)c(CC)c1C#N (centres unmarked) [Example 351],316 to 1000 nM,> 31600 nM,–,–
"CCc1c(C#N)c(SC(C(N)=O)c2ccccc2)nc(N(C)CCn2cnnc2)c1C#N (centres unmarked) [Example 352, 2-((6-((2-(4H-1,2,4-Triazol-4-yl)ethyl)(methyl)amino)-3,5-dicyano-4-ethylpyridin-2-yl)thio)-2-phenylacetamide]",316 to 1000 nM,1000 to 31600 nM,–,–
"CCc1c(C#N)c(SCc2ccc(N(C)C(C)=O)cc2)nc(N2CCCN(C)CC2)c1C#N [Example 354, N-(4-(((3,5-Dicyano-4-ethyl-6-(4-methyl-1,4-diazepan-1-yl)pyridin-2-yl)thio)methyl)phenyl)-N-methylacetamide]",316 to 1000 nM,1000 to 31600 nM,–,–
"CCc1c(C#N)c(SCc2ccc(N(C)S(C)(=O)=O)cc2)nc(N2CCCN(C)CC2)c1C#N [Example 355, N-(4-(((3,5-Dicyano-4-ethyl-6-(4-methyl-1,4-diazepan-1-yl)pyridin-2-yl)thio)methyl)phenyl)-N-methylmethanesulfonamide]",–,< 316 nM,D (Category D: ≥6.5),–
